# Test results published in ChEMBL document CHEMBL1154622, “Structure-guided design of potent and selective pyrimidylpyrrole inhibitors of extracellular signal-regulated kinase (ERK) using conformational control” (J Med Chem, 2009).
# Experiments:
# [1] = molecular target: Ribosomal protein S6 kinase alpha-1 (Homo sapiens) (UniProt Q15418); experiment: Inhibition of RSK1 at 1 uM
# [2] = molecular target: Serine/threonine-protein kinase Sgk3 (Homo sapiens) (UniProt Q96BR1); experiment: Inhibition of SGK3 at 1 uM
# [3] = molecular target: Angiopoietin-1 receptor (Homo sapiens) (UniProt Q02763); experiment: Inhibition of TIE2 at 1 uM
# [4] = molecular target: Tyrosine-protein kinase receptor TYRO3 (Homo sapiens) (UniProt Q06418); experiment: Inhibition of TYRO3 at 1 uM
# [5] = Half life in mouse at 33 mg/kg, po; type: ADME, organism-based; set-up: dose 33 mg/kg, route oral; details: in vivo
# [6] = molecular target: Rho-associated protein kinase 1 (Homo sapiens, UniProt Q13464); experiment: Inhibition of ROCK1
# [7] = molecular target: Mitogen-activated protein kinase 10 (Homo sapiens, UniProt P53779); experiment: Inhibition of JNK3
# [8] = molecular target: Proto-oncogene tyrosine-protein kinase Src (Homo sapiens, UniProt P12931); experiment: Inhibition of SRC
# [9] = molecular target: Hepatocyte growth factor receptor (Homo sapiens, UniProt P08581); experiment: Inhibition of MET
# [10] = molecular target: Dual specificity mitogen-activated protein kinase kinase 1 (Homo sapiens, UniProt Q02750); experiment: Inhibition of MEK1
# [11] = molecular target: Tyrosine-protein kinase ZAP-70 (Homo sapiens, UniProt P43403); experiment: Inhibition of ZAP70
# [12] = molecular target: Focal adhesion kinase 1 (Homo sapiens, UniProt Q05397); experiment: Inhibition of FAK
# [13] = molecular target: RAC-alpha serine/threonine-protein kinase (Homo sapiens) (UniProt P31749); experiment: Inhibition of AKT1 at 1 uM
# [14] = molecular target: RAC-beta serine/threonine-protein kinase (Homo sapiens) (UniProt P31751); experiment: Inhibition of AKT2 at 1 uM
# [15] = Inhibition of CK2 at 2 uM
# [16] = molecular target: Serine/threonine-protein kinase DCLK2 (Homo sapiens) (UniProt Q8N568); experiment: Inhibition of DCAMKL2 at 1 uM
# [17] = molecular target: Dual specificity tyrosine-phosphorylation-regulated kinase 2 (Homo sapiens) (UniProt Q92630); experiment: Inhibition of DYRK2 at 1 uM
# [18] = molecular target: Tyrosine-protein kinase Fer (Homo sapiens) (UniProt P16591); experiment: Inhibition of FER at 1 uM
# [19] = molecular target: Fibroblast growth factor receptor 1 (Homo sapiens) (UniProt P11362); experiment: Inhibition of FGFR1 at 1 uM
# [20] = molecular target: Fibroblast growth factor receptor 2 (Homo sapiens) (UniProt P21802); experiment: Inhibition of FGFR2 at 1 uM
# [21] = molecular target: Macrophage colony-stimulating factor 1 receptor (Homo sapiens) (UniProt P07333); experiment: Inhibition of FMS at 1 uM
# [22] = molecular target: Mitogen-activated protein kinase 8 (Homo sapiens) (UniProt P45983); experiment: Inhibition of JNK1 at 2 uM
# [23] = molecular target: Mitogen-activated protein kinase 9 (Homo sapiens) (UniProt P45984); experiment: Inhibition of JNK2 at 2 uM
# [24] = molecular target: Tyrosine-protein kinase Lck (Homo sapiens) (UniProt P06239); experiment: Inhibition of LCK at 2 uM
# [25] = molecular target: MAP kinase-activated protein kinase 2 (Homo sapiens) (UniProt P49137); experiment: Inhibition of MAPKAPK-2 at 1 uM
# [26] = molecular target: Serine/threonine-protein kinase MARK1 (Homo sapiens) (UniProt Q9P0L2); experiment: Inhibition of MARK1 at 1 uM
# [27] = molecular target: Misshapen-like kinase 1 (Homo sapiens) (UniProt Q8N4C8); experiment: Inhibition of MINK at 1 uM
# [28] = molecular target: Ribosomal protein S6 kinase alpha-5 (Homo sapiens) (UniProt O75582); experiment: Inhibition of MSK1 at 1 uM
# [29] = molecular target: Serine/threonine-protein kinase PAK 2 (Homo sapiens) (UniProt Q13177); experiment: Inhibition of PAK2 at 1 uM
# [30] = molecular target: Serine/threonine-protein kinase PAK 3 (Homo sapiens) (UniProt O75914); experiment: Inhibition of PAK3 at 1 uM
# [31] = molecular target: Serine/threonine-protein kinase MARK2 (Homo sapiens) (UniProt Q7KZI7); experiment: Inhibition of PAR-1Balpha at 1 uM
# [32] = molecular target: Phosphorylase b kinase gamma catalytic chain, liver/testis isoform (Homo sapiens) (UniProt P15735); experiment: Inhibition of PHKgamma2 at 1 uM
# [33] = molecular target: Serine/threonine-protein kinase pim-1 (Homo sapiens) (UniProt P11309); experiment: Inhibition of PIM1 at 1 uM
# [34] = molecular target: Protein kinase C beta type (Homo sapiens) (UniProt P05771); experiment: Inhibition of PKCbeta1 at 1 uM
# [35] = molecular target: Protein kinase C gamma type (Homo sapiens) (UniProt P05129); experiment: Inhibition of PKCgamma at 2 uM
# [36] = molecular target: Protein kinase C theta type (Homo sapiens) (UniProt Q04759); experiment: Inhibition of PKCtheta at 2 uM
# [37] = molecular target: Serine/threonine-protein kinase D2 (Homo sapiens) (UniProt Q9BZL6); experiment: Inhibition of PRKD2 at 1 uM
# [38] = molecular target: Rho-associated protein kinase 2 (Homo sapiens) (UniProt O75116); experiment: Inhibition of ROCK 2 at 2 uM
# [39] = molecular target: Macrophage-stimulating protein receptor (Homo sapiens) (UniProt Q04912); experiment: Inhibition of RON at 1 uM
# [40] = molecular target: T1, Aurora kinase A (Homo sapiens, UniProt O14965); experiment: Inhibition of AURA
# T1 sequence (O14965 whole entry): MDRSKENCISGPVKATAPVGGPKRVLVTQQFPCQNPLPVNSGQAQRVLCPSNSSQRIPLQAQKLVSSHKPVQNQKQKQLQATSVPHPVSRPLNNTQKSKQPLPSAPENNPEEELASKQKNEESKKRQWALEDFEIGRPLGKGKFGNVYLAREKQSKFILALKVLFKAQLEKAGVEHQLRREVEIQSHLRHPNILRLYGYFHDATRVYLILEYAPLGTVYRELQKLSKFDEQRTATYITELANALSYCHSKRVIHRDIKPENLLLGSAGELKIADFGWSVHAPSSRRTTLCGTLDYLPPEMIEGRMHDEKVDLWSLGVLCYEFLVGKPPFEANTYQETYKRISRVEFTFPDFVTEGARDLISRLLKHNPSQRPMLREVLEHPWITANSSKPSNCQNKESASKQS
# [41] = Distribution coefficient, log D of the compound; type: physicochemical; details: octanol/water
# [42] = Clearance in rat at 3 mg/kg, iv; type: ADME, organism-based; set-up: dose 3 mg/kg, route intravenous; details: in vivo
# [43] = Half life in rat at 10 mg/kg, po; type: ADME, organism-based; set-up: dose 10 mg/kg, route oral; details: in vivo
# [44] = Clearance in mouse at 5 mg/kg, iv; type: ADME, organism-based; set-up: dose 5 mg/kg, route intravenous; details: in vivo
# [45] = Oral bioavailability in mouse at 33 mg/kg; type: ADME, organism-based; details: in vivo
# [46] = system: HT-29; experiment: Antiproliferative activity against human HT-29 cells; type: functional, cell-based
# [47] = molecular target: Inhibitor of nuclear factor kappa-B kinase subunit alpha (Homo sapiens) (UniProt O15111); details: 2 uM
# Inhibitor of nuclear factor kappa-B kinase subunit alpha (Homo sapiens), sequence (O15111 whole entry): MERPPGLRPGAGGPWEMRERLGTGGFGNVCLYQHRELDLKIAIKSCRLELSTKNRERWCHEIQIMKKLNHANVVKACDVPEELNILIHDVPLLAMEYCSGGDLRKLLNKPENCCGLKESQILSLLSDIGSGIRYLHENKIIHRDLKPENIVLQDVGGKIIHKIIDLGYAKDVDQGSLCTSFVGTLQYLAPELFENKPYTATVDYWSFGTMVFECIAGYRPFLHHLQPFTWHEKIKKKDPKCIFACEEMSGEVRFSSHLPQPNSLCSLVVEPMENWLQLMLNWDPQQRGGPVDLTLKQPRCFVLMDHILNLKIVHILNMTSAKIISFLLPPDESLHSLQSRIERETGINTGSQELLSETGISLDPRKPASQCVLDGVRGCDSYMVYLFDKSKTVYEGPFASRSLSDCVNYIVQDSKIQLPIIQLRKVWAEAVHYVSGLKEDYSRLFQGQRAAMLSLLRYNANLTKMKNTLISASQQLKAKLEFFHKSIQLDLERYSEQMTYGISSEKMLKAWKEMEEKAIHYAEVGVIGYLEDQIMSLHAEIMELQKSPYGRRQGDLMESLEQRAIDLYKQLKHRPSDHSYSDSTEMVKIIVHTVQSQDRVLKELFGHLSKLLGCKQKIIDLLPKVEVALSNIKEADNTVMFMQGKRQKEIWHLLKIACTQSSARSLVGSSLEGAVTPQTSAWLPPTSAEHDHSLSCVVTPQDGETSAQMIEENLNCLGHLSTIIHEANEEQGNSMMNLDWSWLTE
# Description: Inhibition of IKKalpha at 2 uM
# Angiopoietin-1 receptor (Homo sapiens), sequence (Q02763 whole entry): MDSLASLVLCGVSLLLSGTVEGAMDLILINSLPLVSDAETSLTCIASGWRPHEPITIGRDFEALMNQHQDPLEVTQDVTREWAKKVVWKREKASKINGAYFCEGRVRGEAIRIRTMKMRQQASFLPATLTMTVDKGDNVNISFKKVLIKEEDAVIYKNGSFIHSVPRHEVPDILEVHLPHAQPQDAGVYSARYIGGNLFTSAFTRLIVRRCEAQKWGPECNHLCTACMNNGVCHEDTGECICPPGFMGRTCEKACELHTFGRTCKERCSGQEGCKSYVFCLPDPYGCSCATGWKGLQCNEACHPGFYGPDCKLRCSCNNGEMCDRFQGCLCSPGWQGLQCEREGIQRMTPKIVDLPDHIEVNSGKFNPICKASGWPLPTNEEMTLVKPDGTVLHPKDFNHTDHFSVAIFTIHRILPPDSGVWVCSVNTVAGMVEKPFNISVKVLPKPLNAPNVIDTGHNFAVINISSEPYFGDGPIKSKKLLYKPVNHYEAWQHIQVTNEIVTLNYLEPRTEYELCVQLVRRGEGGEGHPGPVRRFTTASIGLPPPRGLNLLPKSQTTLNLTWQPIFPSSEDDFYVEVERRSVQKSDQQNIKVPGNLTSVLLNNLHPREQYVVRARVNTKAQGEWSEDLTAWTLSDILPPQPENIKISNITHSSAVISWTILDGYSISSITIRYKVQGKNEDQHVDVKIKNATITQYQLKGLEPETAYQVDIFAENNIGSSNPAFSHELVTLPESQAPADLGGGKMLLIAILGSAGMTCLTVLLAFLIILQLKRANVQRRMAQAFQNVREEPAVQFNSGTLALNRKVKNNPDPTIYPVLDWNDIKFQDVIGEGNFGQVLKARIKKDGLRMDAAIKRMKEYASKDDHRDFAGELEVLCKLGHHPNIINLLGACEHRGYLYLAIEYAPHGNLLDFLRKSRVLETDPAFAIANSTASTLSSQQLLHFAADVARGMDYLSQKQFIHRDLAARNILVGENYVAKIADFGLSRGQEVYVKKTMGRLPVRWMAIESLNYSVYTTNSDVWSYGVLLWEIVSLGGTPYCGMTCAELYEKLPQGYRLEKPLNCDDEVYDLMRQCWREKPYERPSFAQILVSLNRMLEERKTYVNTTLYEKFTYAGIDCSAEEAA
# Serine/threonine-protein kinase pim-1 (Homo sapiens), sequence (P11309 whole entry, looked up): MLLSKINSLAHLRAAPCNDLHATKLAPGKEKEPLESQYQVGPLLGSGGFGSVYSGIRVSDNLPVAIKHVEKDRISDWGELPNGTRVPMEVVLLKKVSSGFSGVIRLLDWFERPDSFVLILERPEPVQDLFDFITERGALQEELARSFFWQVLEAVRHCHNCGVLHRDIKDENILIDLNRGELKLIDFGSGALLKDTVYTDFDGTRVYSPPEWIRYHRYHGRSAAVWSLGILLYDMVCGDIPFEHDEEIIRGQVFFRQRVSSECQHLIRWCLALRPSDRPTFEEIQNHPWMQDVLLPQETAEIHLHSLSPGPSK
# Serine/threonine-protein kinase DCLK2 (Homo sapiens), sequence (Q8N568 whole entry): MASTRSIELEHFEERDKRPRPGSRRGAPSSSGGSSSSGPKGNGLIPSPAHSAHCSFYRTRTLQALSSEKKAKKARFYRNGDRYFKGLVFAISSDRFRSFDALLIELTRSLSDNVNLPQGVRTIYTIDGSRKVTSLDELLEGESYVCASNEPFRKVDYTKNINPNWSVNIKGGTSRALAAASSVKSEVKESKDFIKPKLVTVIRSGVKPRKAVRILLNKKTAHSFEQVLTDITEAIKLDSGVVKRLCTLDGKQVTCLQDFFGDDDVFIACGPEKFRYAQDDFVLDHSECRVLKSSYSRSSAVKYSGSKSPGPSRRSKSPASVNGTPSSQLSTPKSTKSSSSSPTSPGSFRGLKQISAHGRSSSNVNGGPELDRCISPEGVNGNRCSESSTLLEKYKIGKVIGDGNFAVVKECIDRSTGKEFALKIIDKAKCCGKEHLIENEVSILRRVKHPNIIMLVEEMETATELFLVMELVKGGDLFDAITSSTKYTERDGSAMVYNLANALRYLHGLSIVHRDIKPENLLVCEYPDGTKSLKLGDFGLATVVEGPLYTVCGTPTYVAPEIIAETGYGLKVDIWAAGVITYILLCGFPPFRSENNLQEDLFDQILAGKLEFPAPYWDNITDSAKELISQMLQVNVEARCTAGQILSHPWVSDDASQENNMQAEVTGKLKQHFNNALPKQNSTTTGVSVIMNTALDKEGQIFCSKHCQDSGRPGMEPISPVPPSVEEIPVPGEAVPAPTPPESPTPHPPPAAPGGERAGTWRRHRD
# Dual specificity tyrosine-phosphorylation-regulated kinase 2 (Homo sapiens), sequence (Q92630 whole entry): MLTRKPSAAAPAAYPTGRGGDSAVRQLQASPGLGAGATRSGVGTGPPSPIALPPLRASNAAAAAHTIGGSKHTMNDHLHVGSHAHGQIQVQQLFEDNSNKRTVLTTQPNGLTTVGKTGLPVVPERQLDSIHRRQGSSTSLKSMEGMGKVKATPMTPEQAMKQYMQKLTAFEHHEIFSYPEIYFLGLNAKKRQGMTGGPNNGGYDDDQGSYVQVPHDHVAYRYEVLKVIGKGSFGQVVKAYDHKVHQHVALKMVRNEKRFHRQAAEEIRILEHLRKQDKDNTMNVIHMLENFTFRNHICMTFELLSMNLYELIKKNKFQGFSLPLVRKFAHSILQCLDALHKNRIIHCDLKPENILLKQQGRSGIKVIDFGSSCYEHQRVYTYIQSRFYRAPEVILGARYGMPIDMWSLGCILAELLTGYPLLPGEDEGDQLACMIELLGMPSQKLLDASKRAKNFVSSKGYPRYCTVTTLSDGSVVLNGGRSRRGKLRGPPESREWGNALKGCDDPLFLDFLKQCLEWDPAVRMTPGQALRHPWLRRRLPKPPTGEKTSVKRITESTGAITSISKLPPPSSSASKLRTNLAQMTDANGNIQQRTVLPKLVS
# Macrophage colony-stimulating factor 1 receptor (Homo sapiens), sequence (P07333 whole entry): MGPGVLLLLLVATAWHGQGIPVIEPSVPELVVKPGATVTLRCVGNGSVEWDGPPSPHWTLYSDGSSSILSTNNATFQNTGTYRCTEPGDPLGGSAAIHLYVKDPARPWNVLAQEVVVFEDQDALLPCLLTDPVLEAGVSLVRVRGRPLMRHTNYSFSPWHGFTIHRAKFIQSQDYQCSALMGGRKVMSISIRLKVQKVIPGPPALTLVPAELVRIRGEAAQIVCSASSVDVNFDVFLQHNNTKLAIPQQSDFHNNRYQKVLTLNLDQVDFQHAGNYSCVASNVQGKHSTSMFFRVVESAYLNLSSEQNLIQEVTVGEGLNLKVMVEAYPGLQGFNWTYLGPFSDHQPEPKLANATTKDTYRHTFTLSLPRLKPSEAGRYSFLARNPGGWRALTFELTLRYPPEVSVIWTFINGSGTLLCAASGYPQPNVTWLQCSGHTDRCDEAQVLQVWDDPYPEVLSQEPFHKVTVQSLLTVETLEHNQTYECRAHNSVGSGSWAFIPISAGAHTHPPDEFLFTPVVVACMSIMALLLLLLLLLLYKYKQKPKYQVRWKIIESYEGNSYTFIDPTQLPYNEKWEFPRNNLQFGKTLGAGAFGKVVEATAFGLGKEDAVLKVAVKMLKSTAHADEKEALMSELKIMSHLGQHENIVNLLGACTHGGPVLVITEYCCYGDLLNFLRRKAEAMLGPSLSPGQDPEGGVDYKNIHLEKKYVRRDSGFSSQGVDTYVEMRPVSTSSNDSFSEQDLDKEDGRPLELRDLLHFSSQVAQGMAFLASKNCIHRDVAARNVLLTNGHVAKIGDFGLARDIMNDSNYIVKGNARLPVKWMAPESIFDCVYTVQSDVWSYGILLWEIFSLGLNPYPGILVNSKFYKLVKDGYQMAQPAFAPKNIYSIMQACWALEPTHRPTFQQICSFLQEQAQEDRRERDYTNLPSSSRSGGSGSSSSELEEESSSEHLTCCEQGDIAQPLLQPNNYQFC
# Dual specificity mitogen-activated protein kinase kinase 1, sequence (Q02750 whole entry): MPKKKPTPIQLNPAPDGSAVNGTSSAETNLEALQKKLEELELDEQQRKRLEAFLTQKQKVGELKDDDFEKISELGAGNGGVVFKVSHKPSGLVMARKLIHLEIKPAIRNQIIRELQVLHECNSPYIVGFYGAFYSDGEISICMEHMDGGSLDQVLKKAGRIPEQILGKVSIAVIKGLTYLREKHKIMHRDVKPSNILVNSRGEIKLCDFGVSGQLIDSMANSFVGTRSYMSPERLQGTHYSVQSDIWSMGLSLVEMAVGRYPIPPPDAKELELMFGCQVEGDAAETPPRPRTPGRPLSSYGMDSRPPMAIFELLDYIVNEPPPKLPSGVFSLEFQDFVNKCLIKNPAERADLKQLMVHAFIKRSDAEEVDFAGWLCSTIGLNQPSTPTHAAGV
structure (smiles),measurement,setting,value
Cc1cnc(Nc2ccc(F)cc2Cl)nc1-c1c[nH]c(C(=O)N[C@H](CO)c2cccc(Cl)c2)c1,inhibition,[1],4%
same,inhibition,[2],2%
same,inhibition,[3],0%
same,inhibition,[4],0%
same,half-life,[5],264 min
same,Ki,[6],1400 nM
same,Ki,[7],1400 nM
same,Ki,[8],> 4 µM
same,Ki,[9],> 4 µM
same,Ki,[10],> 4 µM
same,Ki,[11],> 4 µM
same,Ki,[12],> 10 µM
same,inhibition,[13],0%
same,inhibition,[14],0%
same,inhibition,[15],0%
same,inhibition,[16],1%
same,inhibition,[17],3%
same,inhibition,[18],3%
same,inhibition,[19],3%
same,inhibition,[20],12%
same,inhibition,[21],6%
same,inhibition,[22],34%
same,inhibition,[23],43%
same,inhibition,[24],3%
same,inhibition,[25],0%
same,inhibition,[26],12%
same,inhibition,[27],18%
same,inhibition,[28],7%
same,inhibition,[29],0%
same,inhibition,[30],3%
same,inhibition,[31],5%
same,inhibition,[32],4%
same,inhibition,[33],0%
same,inhibition,[34],4%
same,inhibition,[35],11%
same,inhibition,[36],17%
same,inhibition,[37],50%
same,inhibition,[38],57%
same,inhibition,[39],1%
same,Ki,[40],540 nM
same,logD,[41],4.3
same,clearance,[42],24 mL/min/kg
same,half-life,[43],180 min
same,clearance,[44],55 mL/min/kg
same,bioavailability,[45],67%
same,IC50,[46],48 nM
same,inhibition,[47],0%
